Source: patent US20260297070A1, “CYCLIC [COMPOUND LEFT OUT] WRN INHIBITORS” (Nimbus Wadjet, Inc., priority 2023, published 2026)

Each compound was assayed against T1, human Werner helicase (WRN-BV08, Uniprot Q14191, amino acids 517-1235 with L1074F point mutation) (Homo sapiens, UniProt Q14191, L1074F) (assay: WRN (BV08) ADP-Glo Assay). Conditions: 0.15 nM WRN, 5 μM ATP, 0.1 nM DNA duplex, 15 min preincubation, 60 min at 25° C., pH 7.5, 1% DMSO; read-out: ADP-Glo_hWRN_IC50.
T1 construct: Uniprot Q14191, amino acids 517-1235 with L1074F point mutation; TEV-cleavable 8×His (C, cleaved yes); made in house; host or cells: Sf9 insect cells (baculovirus)
T1 sequence (Q14191 with tags, fused parts or gaps L1074F limits assumed): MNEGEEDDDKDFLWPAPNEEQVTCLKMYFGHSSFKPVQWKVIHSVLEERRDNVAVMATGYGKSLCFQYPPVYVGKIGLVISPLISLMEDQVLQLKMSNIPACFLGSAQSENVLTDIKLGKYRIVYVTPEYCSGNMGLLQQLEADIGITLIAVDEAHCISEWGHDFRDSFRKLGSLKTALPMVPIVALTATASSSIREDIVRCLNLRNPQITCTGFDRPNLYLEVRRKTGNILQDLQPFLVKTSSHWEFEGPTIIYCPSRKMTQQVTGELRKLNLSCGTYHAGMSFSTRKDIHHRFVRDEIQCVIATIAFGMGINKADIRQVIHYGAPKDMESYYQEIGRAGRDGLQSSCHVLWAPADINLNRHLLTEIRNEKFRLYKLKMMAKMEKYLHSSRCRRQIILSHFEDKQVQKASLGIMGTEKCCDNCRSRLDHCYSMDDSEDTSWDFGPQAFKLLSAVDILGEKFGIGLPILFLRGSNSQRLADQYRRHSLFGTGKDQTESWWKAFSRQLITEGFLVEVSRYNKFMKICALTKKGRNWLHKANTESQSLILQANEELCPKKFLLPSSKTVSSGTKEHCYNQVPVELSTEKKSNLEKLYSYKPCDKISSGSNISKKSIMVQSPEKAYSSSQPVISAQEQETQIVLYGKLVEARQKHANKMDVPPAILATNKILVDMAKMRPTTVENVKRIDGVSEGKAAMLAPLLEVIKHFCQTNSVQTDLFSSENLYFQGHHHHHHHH
Format: biochemical
How it was run: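 Percent inhibition was normalised to DMSO (max) and 20 μM NSC-617145 (min) controls from ADP-Glo luminescence, and IC50 values came from a four-parameter fit. The reaction ran 60 min at 25 °C with 0.15 nM WRN, 5 μM ATP and 0.1 nM duplex DNA.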

IC50, > 50 µM:
O=C(c1ccc(-c2ccccc2)cn1)N(Cc1ccccc1)C1C=CS(=O)(=O)C1 (stereo not shown) [I-487, N-benzyl-N-(1,1-dioxo-2,3-dihydro-1lambda6-thiophen-3-yl)-5-phenylpyridine-2-carboxamide]
O=C(Cn1nnc2ccccc21)N(Cc1ccncc1)C1C=CS(=O)(=O)C1 (stereo not shown) [I-492, 2-(1H-1,2,3-benzotriazol-1-yl)-N-(1,1-dioxo-2,3-dihydro-1lambda6-thiophen-3-yl)-N-[(pyridin-4-yl)methyl]acetamide]
O=C(Cc1c[nH]c2ccccc12)N(Cc1ccncc1)C1C=CS(=O)(=O)C1 (stereo not shown) [I-493, N-(1,1-dioxo-2,3-dihydro-1lambda6-thiophen-3-yl)-2-(1H-indol-3-yl)-N-[(pyridin-4-yl)methyl]acetamide]
O=C(Cc1ccc2c(c1)OCO2)N(Cc1ccncc1)C1C=CS(=O)(=O)C1 (stereo not shown) [I-494, 2-(2H-1,3-benzodioxol-5-yl)-N-(1,1-dioxo-2,3-dihydro-1lambda6-thiophen-3-yl)-N-[(pyridin-4-yl)methyl]acetamide]
O=C(CCc1cc2ccccc2s1)N(Cc1ccncc1)C1C=CS(=O)(=O)C1 (stereo not shown) [I-495, 3-(1-benzothiophen-2-yl)-N-(1,1-dioxo-2,3-dihydro-1lambda6-thiophen-3-yl)-N-[(pyridin-4-yl)methyl]propanamide]
O=C(CCc1nc(-c2ccccc2F)no1)N(Cc1ccncc1)C1C=CS(=O)(=O)C1 (stereo not shown) [I-496, N-(1,1-dioxo-2,3-dihydro-1lambda6-thiophen-3-yl)-3-[3-(2-fluorophenyl)-1,2,4-oxadiazol-5-yl]-N-[(pyridin-4-yl)methyl]propanamide]
O=C(Cc1ccc(-n2cccc2)cc1)N(Cc1cccc2[nH]ccc12)C1C=CS(=O)(=O)C1 (stereo not shown) [I-497, N-(1,1-dioxo-2,3-dihydro-1lambda6-thiophen-3-yl)-N-[(1H-indol-4-yl)methyl]-2-[4-(1H-pyrrol-1-yl)phenyl]acetamide]
O=C(Cc1ccc(-n2cccc2)cc1)N(Cc1ccc2[nH]ccc2c1)C1C=CS(=O)(=O)C1 (stereo not shown) [I-498, N-(1,1-dioxo-2,3-dihydro-1lambda6-thiophen-3-yl)-N-[(1H-indol-5-yl)methyl]-2-[4-(1H-pyrrol-1-yl)phenyl]acetamide]
O=C(Cc1ccc(-n2cccc2)cc1)N(Cc1ccc2cc[nH]c2c1)C1C=CS(=O)(=O)C1 (stereo not shown) [I-499, N-(1,1-dioxo-2,3-dihydro-1lambda6-thiophen-3-yl)-N-[(1H-indol-6-yl)methyl]-2-[4-(1H-pyrrol-1-yl)phenyl]acetamide]
O=C(CCCc1c[nH]c2ccccc12)N(Cc1ccncc1)C1C=CS(=O)(=O)C1 (stereo not shown) [I-500, N-(1,1-dioxo-2,3-dihydro-1lambda6-thiophen-3-yl)-4-(1H-indol-3-yl)-N-[(pyridin-4-yl)methyl]butanamide]
O=C(Cc1ccc(OCc2ccccc2)cc1)N(Cc1ccncc1)C1C=CS(=O)(=O)C1 (stereo not shown) [I-501, 2-[4-(benzyloxy)phenyl]-N-(1,1-dioxo-2,3-dihydro-1lambda6-thiophen-3-yl)-N-[(pyridin-4-yl)methyl]acetamide]
O=C(CCn1ccc2ccccc21)N(Cc1ccncc1)C1C=CS(=O)(=O)C1 (stereo not shown) [I-502, N-(1,1-dioxo-2,3-dihydro-1lambda6-thiophen-3-yl)-3-(1H-indol-1-yl)-N-[(pyridin-4-yl)methyl]propanamide]
O=C(Cc1ccc(Oc2ccccc2)cc1)N(Cc1ccncc1)C1C=CS(=O)(=O)C1 (stereo not shown) [I-503, N-(1,1-dioxo-2,3-dihydro-1lambda6-thiophen-3-yl)-2-(4-phenoxyphenyl)-N-[(pyridin-4-yl)methyl]acetamide]
O=C(Cc1ccc2cc[nH]c2c1)N(Cc1ccncc1)C1C=CS(=O)(=O)C1 (stereo not shown) [I-506, N-(1,1-dioxo-2,3-dihydro-1lambda6-thiophen-3-yl)-2-(1H-indol-6-yl)-N-[(pyridin-4-yl)methyl]acetamide]
O=C(CCc1ccc(C(F)(F)F)cc1)N(Cc1ccncc1)C1C=CS(=O)(=O)C1 (stereo not shown) [I-507, N-(1,1-dioxo-2,3-dihydro-1lambda6-thiophen-3-yl)-N-[(pyridin-4-yl)methyl]-3-[4-(trifluoromethyl)phenyl]propanamide]
O=C(CCc1cccc(OC(F)(F)F)c1)N(Cc1ccncc1)C1C=CS(=O)(=O)C1 (stereo not shown) [I-508, N-(1,1-dioxo-2,3-dihydro-1lambda6-thiophen-3-yl)-N-[(pyridin-4-yl)methyl]-3-[3-(trifluoromethoxy)phenyl]propanamide]
O=C(Cc1cccc(Oc2ccccc2)c1)N(Cc1ccncc1)C1C=CS(=O)(=O)C1 (stereo not shown) [I-510, N-(1,1-dioxo-2,3-dihydro-1lambda6-thiophen-3-yl)-2-(3-phenoxyphenyl)-N-[(pyridin-4-yl)methyl]acetamide]
COc1ccc2cc(CC(=O)N(Cc3ccncc3)C3C=CS(=O)(=O)C3)ccc2c1 (stereo not shown) [I-511, N-(1,1-dioxo-2,3-dihydro-1lambda6-thiophen-3-yl)-2-(6-methoxynaphthalen-2-yl)-N-[(pyridin-4-yl)methyl]acetamide]
N#Cc1ccc(CC(=O)N(Cc2ccncc2)C2C=CS(=O)(=O)C2)cc1 (stereo not shown) [I-513, 2-(4-cyanophenyl)-N-(1,1-dioxo-2,3-dihydro-1lambda6-thiophen-3-yl)-N-[(pyridin-4-yl)methyl]acetamide]
O=C(Cc1ccc2ncccc2c1)N(Cc1ccncc1)C1C=CS(=O)(=O)C1 (stereo not shown) [I-514, N-(1,1-dioxo-2,3-dihydro-1lambda6-thiophen-3-yl)-N-[(pyridin-4-yl)methyl]-2-(quinolin-6-yl)acetamide]
O=C(Cc1noc2ccccc12)N(Cc1ccncc1)C1C=CS(=O)(=O)C1 (stereo not shown) [I-516, 2-(1,2-benzoxazol-3-yl)-N-(1,1-dioxo-2,3-dihydro-1lambda6-thiophen-3-yl)-N-[(pyridin-4-yl)methyl]acetamide]
O=C(CCc1ccc(-n2cccc2)cc1)N(Cc1ccncc1)C1C=CS(=O)(=O)C1 (stereo not shown) [I-519, N-(1,1-dioxo-2,3-dihydro-1lambda6-thiophen-3-yl)-N-[(pyridin-4-yl)methyl]-3-[4-(1H-pyrrol-1-yl)phenyl]propanamide]
O=C(Cc1ccc(-n2cccc2)cc1)N(Cc1ccccc1Cl)C1C=CS(=O)(=O)C1 (stereo not shown) [I-521, N-[(2-chlorophenyl)methyl]-N-(1,1-dioxo-2,3-dihydro-1lambda6-thiophen-3-yl)-2-[4-(1H-pyrrol-1-yl)phenyl]acetamide]
O=C(Cc1ccc(-n2cccc2)cc1)N(Cc1cc(F)cc(F)c1)C1C=CS(=O)(=O)C1 (stereo not shown) [I-522, N-[(3,5-difluorophenyl)methyl]-N-(1,1-dioxo-2,3-dihydro-1lambda6-thiophen-3-yl)-2-[4-(1H-pyrrol-1-yl)phenyl]acetamide]
COc1ccccc1CN(C(=O)Cc1ccc(-n2cccc2)cc1)C1C=CS(=O)(=O)C1 (stereo not shown) [I-524, N-(1,1-dioxo-2,3-dihydro-1lambda6-thiophen-3-yl)-N-[(2-methoxyphenyl)methyl]-2-[4-(1H-pyrrol-1-yl)phenyl]acetamide]
O=C(Cc1ccc(-n2cccc2)cc1)N(C1C=CS(=O)(=O)C1)C(CO)c1ccccc1 (stereo not shown) [I-525, N-(1,1-dioxo-2,3-dihydro-1lambda6-thiophen-3-yl)-N-(2-hydroxy-1-phenylethyl)-2-[4-(1H-pyrrol-1-yl)phenyl]acetamide]
O=C(C(c1ccc(Cl)cc1)c1ccc(Cl)cc1)N(Cc1ccncc1)C1C=CS(=O)(=O)C1 (stereo not shown) [I-526, 2,2-bis(4-chlorophenyl)-N-(1,1-dioxo-2,3-dihydro-1lambda6-thiophen-3-yl)-N-[(pyridin-4-yl)methyl]acetamide]
CS(=O)(=O)c1ccc(CC(=O)N(Cc2ccncc2)C2C=CS(=O)(=O)C2)cc1 (stereo not shown) [I-527, N-(1,1-dioxo-2,3-dihydro-1lambda6-thiophen-3-yl)-2-(4-methanesulfonylphenyl)-N-[(pyridin-4-yl)methyl]acetamide]
O=C(Cc1cccc(-n2cccc2)c1)N(Cc1ccncc1)C1C=CS(=O)(=O)C1 (stereo not shown) [I-528, N-(1,1-dioxo-2,3-dihydro-1lambda6-thiophen-3-yl)-N-[(pyridin-4-yl)methyl]-2-[3-(1H-pyrrol-1-yl)phenyl]acetamide]
O=C(/C=C/c1ccc(C(F)(F)F)cc1)N(Cc1ccncc1)C1C=CS(=O)(=O)C1 (stereo not shown) [I-529, (2E)-N-(1,1-dioxo-2,3-dihydro-1lambda6-thiophen-3-yl)-N-[(pyridin-4-yl)methyl]-3-[4-(trifluoromethyl)phenyl]prop-2-enamide]
O=C(/C=C/c1ccccc1)N(Cc1ccncc1)C1C=CS(=O)(=O)C1 (stereo not shown) [I-530, (2E)-N-(1,1-dioxo-2,3-dihydro-1lambda6-thiophen-3-yl)-3-phenyl-N-[(pyridin-4-yl)methyl]prop-2-enamide]
O=C(Cc1ccc(-n2cnnc2)cc1)N(Cc1ccncc1)C1C=CS(=O)(=O)C1 (stereo not shown) [I-532, N-(1,1-dioxo-2,3-dihydro-1lambda6-thiophen-3-yl)-N-[(pyridin-4-yl)methyl]-2-[4-(4H-1,2,4-triazol-4-yl)phenyl]acetamide]
O=C(Cc1ccc(-n2cccc2)cc1)N(C1C=CS(=O)(=O)C1)C1CCC1 (stereo not shown) [I-533, N-cyclobutyl-N-(1,1-dioxo-2,3-dihydro-1lambda6-thiophen-3-yl)-2-[4-(1H-pyrrol-1-yl)phenyl]acetamide]
O=C(Cc1ccc(-n2cccc2)cc1)N(Cc1ccccc1Br)C1C=CS(=O)(=O)C1 (stereo not shown) [I-534, N-[(2-bromophenyl)methyl]-N-(1,1-dioxo-2,3-dihydro-1lambda6-thiophen-3-yl)-2-[4-(1H-pyrrol-1-yl)phenyl]acetamide]
